In general, MIC refers to the lowest concentration that inhibits growth of the organism.

SMILES strings stand for the structures. ≈ marks a conversion by molar mass, not a printed value.

The text below walks through data of patent US4921850A, “3-propenylcephem derivative” (Eisai Co., Ltd., priority 1986, dated 1990).

In one assay the test system is Staph. aureus 209-P. Put plainly: Anti-bacterial activity (MIC), agar dilution. Format: cell-based. Conditions: Staphylococcus aureus, 209P, 18 h, Staph. aureus 209-P; agar dilution, about 10^6 CFU/ml, 18 hours, 37° C.; read-out: MIC. As for the experimental part: (§1) MIC (μg/ml) were determined by an agar dilution method [Chemotherapy (Japan), 29, 76-79, 1981]. Overnight cultures of the bacterial strains in Mueller-Hinton broth were diluted to final concentration of about 10^6 CFU/ml, and 5 μl of each bacterial suspension was spotted onto Mueller-Hinton agar plates that contained twofold serial dilutions of antibiotics. MICs were measured after incubation for 18 hours at 37° C.
(In agar dilution the substance is mixed into plates at graded concentrations.)
Regarding `C[N+](C)(C/C=C/C1=C(C(=O)[O-])N2C(=O)[C@@H](NC(=O)/C(=N\OCF)c3nsc(N)n3)[C@H]2SC1)NC(N)=O` [Example 53], the MIC was 0.8 µg/mL (≈ 1.47 µM).

Regarding `CNC(=O)C[N+](C)(C)C/C=C/C1=C(C(=O)[O-])N2C(=O)[C@@H](NC(=O)/C(=N\OCF)c3nsc(N)n3)[C@H]2SC1` [Example 55], the MIC is 0.2 µg/mL (≈ 0.359 µM).

On to `CN(C)C(=O)C[N+](C)(C)C/C=C/C1=C(C(=O)[O-])N2C(=O)[C@@H](NC(=O)/C(=N\OCF)c3nsc(N)n3)[C@H]2SC1` [Example 56], for which the MIC stood at 0.4 µg/mL (≈ 0.701 µM).

For the molecule `CNC(=O)[C@H](C)[N+](C)(C)C/C=C/C1=C(C(=O)[O-])N2C(=O)[C@@H](NC(=O)/C(=N\OCF)c3nsc(N)n3)[C@H]2SC1` [Example 58], the MIC amounted to 0.2 µg/mL (≈ 0.35 µM).

`CNC(=O)[C@@H](C)[N+](C)(C)C/C=C/C1=C(C(=O)[O-])N2C(=O)[C@@H](NC(=O)/C(=N\OCF)c3nsc(N)n3)[C@H]2SC1` [Example 59]: the MIC was found to be 0.4 µg/mL (≈ 0.701 µM).

Another assay relates to Pseud. aeruginosa EP-01. Put plainly: Anti-bacterial activity (MIC), agar dilution. Conditions: Pseudomonas aeruginosa, EP01, 18 h, Pseud. aeruginosa EP-01; agar dilution, about 10^6 CFU/ml, 18 hours, 37° C.; read-out: MIC. Format: cell-based. The protocol: as §1
As for `C[N+](C)(C/C=C/C1=C(C(=O)[O-])N2C(=O)[C@@H](NC(=O)/C(=N\OCF)c3nsc(N)n3)[C@H]2SC1)NC(N)=O` [Example 53], the MIC was determined as 0.8 µg/mL (≈ 1.47 µM).

For `CNC(=O)C[N+](C)(C)C/C=C/C1=C(C(=O)[O-])N2C(=O)[C@@H](NC(=O)/C(=N\OCF)c3nsc(N)n3)[C@H]2SC1` [Example 55], the minimal inhibitory concentration (MIC) is 0.4 µg/mL (≈ 0.719 µM).

Turning to `CN(C)C(=O)C[N+](C)(C)C/C=C/C1=C(C(=O)[O-])N2C(=O)[C@@H](NC(=O)/C(=N\OCF)c3nsc(N)n3)[C@H]2SC1` [Example 56], the minimal inhibitory concentration (MIC) worked out at 1.56 µg/mL (≈ 2.73 µM).

Turning to `CNC(=O)[C@H](C)[N+](C)(C)C/C=C/C1=C(C(=O)[O-])N2C(=O)[C@@H](NC(=O)/C(=N\OCF)c3nsc(N)n3)[C@H]2SC1` [Example 58], the MIC worked out at 1.56 µg/mL (≈ 2.73 µM).

For the molecule `CNC(=O)[C@@H](C)[N+](C)(C)C/C=C/C1=C(C(=O)[O-])N2C(=O)[C@@H](NC(=O)/C(=N\OCF)c3nsc(N)n3)[C@H]2SC1` [Example 59], the minimum inhibitory concentration (MIC) was 1.56 µg/mL (≈ 2.73 µM).

A further assay deals with Kleb. pneumoniae EK-6. Nature of the assay: Anti-bacterial activity (MIC), agar dilution. Format: cell-based. Conditions: Klebsiella pneumoniae, EK6, 18 h, Kleb. pneumoniae EK-6; agar dilution, about 10^6 CFU/ml, 18 hours, 37° C.; read-out: MIC. The protocol:
as §1
As for `C[N+](C)(C/C=C/C1=C(C(=O)[O-])N2C(=O)[C@@H](NC(=O)/C(=N\OCF)c3nsc(N)n3)[C@H]2SC1)NC(N)=O` [Example 53], the minimum inhibitory concentration (MIC) was 0.05 µg/mL (≈ 0.092 µM).

In the case of `CNC(=O)C[N+](C)(C)C/C=C/C1=C(C(=O)[O-])N2C(=O)[C@@H](NC(=O)/C(=N\OCF)c3nsc(N)n3)[C@H]2SC1` [Example 55], the MIC was ≤ 0.025 µg/mL.

Take `CN(C)C(=O)C[N+](C)(C)C/C=C/C1=C(C(=O)[O-])N2C(=O)[C@@H](NC(=O)/C(=N\OCF)c3nsc(N)n3)[C@H]2SC1` [Example 56]: the minimal inhibitory concentration (MIC) was determined as 0.05 µg/mL (≈ 0.0876 µM).

As to `CNC(=O)[C@H](C)[N+](C)(C)C/C=C/C1=C(C(=O)[O-])N2C(=O)[C@@H](NC(=O)/C(=N\OCF)c3nsc(N)n3)[C@H]2SC1` [Example 58], the minimum inhibitory concentration (MIC) worked out at 0.05 µg/mL (≈ 0.0876 µM).

Turning to `CNC(=O)[C@@H](C)[N+](C)(C)C/C=C/C1=C(C(=O)[O-])N2C(=O)[C@@H](NC(=O)/C(=N\OCF)c3nsc(N)n3)[C@H]2SC1` [Example 59], the minimum inhibitory concentration (MIC) is ≤ 0.025 µg/mL.

The next assay concerns Morganella morganii EP-14. Put plainly: Anti-bacterial activity (MIC), agar dilution. In kind it is cell-based. Conditions: Morganella morganii, EP14, 18 h, about 10^6 CFU/ml, 37° C., read-out: MIC. As for the experimental part: as §1
With `C[N+](C)(C/C=C/C1=C(C(=O)[O-])N2C(=O)[C@@H](NC(=O)/C(=N\OCF)c3nsc(N)n3)[C@H]2SC1)NC(N)=O` [Example 53], the minimal inhibitory concentration (MIC) worked out at 0.05 µg/mL (≈ 0.092 µM).

On to `CNC(=O)C[N+](C)(C)C/C=C/C1=C(C(=O)[O-])N2C(=O)[C@@H](NC(=O)/C(=N\OCF)c3nsc(N)n3)[C@H]2SC1` [Example 55], for which the MIC is ≤ 0.025 µg/mL.

As to `CN(C)C(=O)C[N+](C)(C)C/C=C/C1=C(C(=O)[O-])N2C(=O)[C@@H](NC(=O)/C(=N\OCF)c3nsc(N)n3)[C@H]2SC1` [Example 56], the MIC was determined as 0.05 µg/mL (≈ 0.0876 µM).

Take `CNC(=O)[C@H](C)[N+](C)(C)C/C=C/C1=C(C(=O)[O-])N2C(=O)[C@@H](NC(=O)/C(=N\OCF)c3nsc(N)n3)[C@H]2SC1` [Example 58]: the MIC came to 0.05 µg/mL (≈ 0.0876 µM).

For the molecule `CNC(=O)[C@@H](C)[N+](C)(C)C/C=C/C1=C(C(=O)[O-])N2C(=O)[C@@H](NC(=O)/C(=N\OCF)c3nsc(N)n3)[C@H]2SC1` [Example 59], the minimum inhibitory concentration (MIC) is ≤ 0.025 µg/mL.

The test system of a further assay is Escher. coli NIHJ. Put plainly: Anti-bacterial activity (MIC), agar dilution. Format: cell-based. Conditions: Escherichia coli, 18 h, Escher. coli NIHJ; agar dilution, about 10^6 CFU/ml, 18 hours, 37° C.; read-out: MIC. The protocol: as §1
Turning to `C[N+](C)(C/C=C/C1=C(C(=O)[O-])N2C(=O)[C@@H](NC(=O)/C(=N\OCF)c3nsc(N)n3)[C@H]2SC1)NC(N)=O` [Example 53], the MIC was determined as 0.05 µg/mL (≈ 0.092 µM).

As to `CNC(=O)C[N+](C)(C)C/C=C/C1=C(C(=O)[O-])N2C(=O)[C@@H](NC(=O)/C(=N\OCF)c3nsc(N)n3)[C@H]2SC1` [Example 55], the minimal inhibitory concentration (MIC) is ≤ 0.025 µg/mL.

For the molecule `CN(C)C(=O)C[N+](C)(C)C/C=C/C1=C(C(=O)[O-])N2C(=O)[C@@H](NC(=O)/C(=N\OCF)c3nsc(N)n3)[C@H]2SC1` [Example 56], the MIC turned out to be 0.05 µg/mL (≈ 0.0876 µM).

Consider `CNC(=O)[C@H](C)[N+](C)(C)C/C=C/C1=C(C(=O)[O-])N2C(=O)[C@@H](NC(=O)/C(=N\OCF)c3nsc(N)n3)[C@H]2SC1` [Example 58], for which the MIC is ≤ 0.025 µg/mL.

As for `CNC(=O)[C@@H](C)[N+](C)(C)C/C=C/C1=C(C(=O)[O-])N2C(=O)[C@@H](NC(=O)/C(=N\OCF)c3nsc(N)n3)[C@H]2SC1` [Example 59], the MIC was ≤ 0.025 µg/mL.

The test system of another assay is Ser. marcescens ES-75. Put plainly: Anti-bacterial activity (MIC), agar dilution. In kind it is cell-based. Conditions: Serratia marcescens, ES75, 18 h, Ser. marcescens ES-75; agar dilution, about 10^6 CFU/ml, 18 hours, 37° C.; read-out: MIC. The protocol:
as §1
For the molecule `C[N+](C)(C/C=C/C1=C(C(=O)[O-])N2C(=O)[C@@H](NC(=O)/C(=N\OCF)c3nsc(N)n3)[C@H]2SC1)NC(N)=O` [Example 53], the MIC amounted to 0.1 µg/mL (≈ 0.184 µM).

For the molecule `CNC(=O)C[N+](C)(C)C/C=C/C1=C(C(=O)[O-])N2C(=O)[C@@H](NC(=O)/C(=N\OCF)c3nsc(N)n3)[C@H]2SC1` [Example 55], the MIC is ≤ 0.025 µg/mL.

As to `CN(C)C(=O)C[N+](C)(C)C/C=C/C1=C(C(=O)[O-])N2C(=O)[C@@H](NC(=O)/C(=N\OCF)c3nsc(N)n3)[C@H]2SC1` [Example 56], the minimal inhibitory concentration (MIC) came to 0.1 µg/mL (≈ 0.175 µM).

Take `CNC(=O)[C@H](C)[N+](C)(C)C/C=C/C1=C(C(=O)[O-])N2C(=O)[C@@H](NC(=O)/C(=N\OCF)c3nsc(N)n3)[C@H]2SC1` [Example 58]: the minimal inhibitory concentration (MIC) was 0.05 µg/mL (≈ 0.0876 µM).

As to `CNC(=O)[C@@H](C)[N+](C)(C)C/C=C/C1=C(C(=O)[O-])N2C(=O)[C@@H](NC(=O)/C(=N\OCF)c3nsc(N)n3)[C@H]2SC1` [Example 59], the MIC was ≤ 0.025 µg/mL.
